# Numbering of substitutions follows the chain as printed.
# Legend:
# Format in all cases: biochemical
# [1] = target: T1, Pseudomonas fluorescens FLS (formolase), wild type, SEQ ID NO: 8 (Pseudomonas fluorescens, UniProt Q9F4L3, A28I/A394G/A480W/G419N/L90T/R188H/W89R); assay: kinetic parameters of FLS; details: substrate acetaldehyde, coenzyme TPP (0.1 mM), pH 8.0, room temperature
# T1 sequence (Q9F4L3 1-563 A28I/A394G/A480W/G419N/L90T/R188H/W89R): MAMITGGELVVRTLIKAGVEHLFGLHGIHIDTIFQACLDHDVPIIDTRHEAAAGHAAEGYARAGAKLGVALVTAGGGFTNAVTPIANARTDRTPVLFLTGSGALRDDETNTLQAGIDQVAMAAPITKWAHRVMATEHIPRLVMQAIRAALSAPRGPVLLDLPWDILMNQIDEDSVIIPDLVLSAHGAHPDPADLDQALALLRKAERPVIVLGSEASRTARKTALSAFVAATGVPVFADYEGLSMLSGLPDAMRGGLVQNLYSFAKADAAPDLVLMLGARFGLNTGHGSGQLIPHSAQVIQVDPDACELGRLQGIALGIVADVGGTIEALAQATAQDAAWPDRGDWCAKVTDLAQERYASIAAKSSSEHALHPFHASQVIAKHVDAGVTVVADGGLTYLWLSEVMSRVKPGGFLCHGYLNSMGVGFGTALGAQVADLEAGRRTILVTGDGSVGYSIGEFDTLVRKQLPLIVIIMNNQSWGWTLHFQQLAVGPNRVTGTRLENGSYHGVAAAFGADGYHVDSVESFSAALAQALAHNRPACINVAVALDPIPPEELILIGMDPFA
# Description: (§1) The kinetic parameters of EtDH and EtDH:D46G were identified by reacting the EtDH and EtDH:D46G with a reaction mixture containing 100 mM glycine-NaOH buffer solution (pH 9.5), 5 mM Mg^2+, 3 mM NAD^+/NADP^+ and 0.5 to 100 mM ethanol at room temperature. The kinetic parameters of FLS and variants thereof were identified by reacting FLS and variants thereof with a reaction mixture containing 100 mM phosphate buffer solution (pH 8.0), 1 mM Mg^+, 0.1 mM TPP and 0.5 to 20 mM acetaldehyde at room temperature. The kinetic parameters of BDH and BDH:S199A were identified by reacting BDH and BDH:S199A with a reaction mixture containing 50 mM Tris-HCl buffer solution (pH 7.5), 0.2 mM NADPH, 1 mM DTT; 0.5 to 100 mM acetoin or 0.5 to 10 mM butanone at room temperature. The Km and kcat values were identified using nonlinear regression fitting of the Michaelis-Menten equation and the fitting were repeated three times.
# (§2) In order to compare the catalytic efficiencies via measurement of kinetic parameters of cascade enzymes and variants thereof in accordance with the present disclosure, the following experiment was performed. Specifically, the kinetic parameters of EtDH and EtDH:D46G were identified by reacting EtDH and EtDH:D46G with a reaction mixture containing 100 mM glycine-NaOH buffer solution (pH 9.5), 5 mM Mg^2+, 3 mM NAD^+/NADP^+ and 0.5 to 100 mM ethanol at room temperature. […]
# [2] = target: T2, Pseudomonas fluorescens FLS (formolase) variant FLS:L482S, SEQ ID NO: 10 (Pseudomonas fluorescens, UniProt Q9F4L3, A28I/A394G/A480W/G419N/L482S/L90T/R188H/W89R); assay: kinetic parameters of FLS:L482S; details: substrate acetaldehyde
# T2 sequence (Q9F4L3 1-563 A28I/A394G/A480W/G419N/L482S/L90T/R188H/W89R): T1 sequence (Q9F4L3 1-563 A28I/A394G/A480W/G419N/L90T/R188H/W89R) with L482S
# Description: as §1, §2
# [3] = target: T3, Pseudomonas fluorescens FLS (formolase) variant FLS:L482R, SEQ ID NO: 11 (Pseudomonas fluorescens, UniProt Q9F4L3, A28I/A394G/A480W/G419N/L482R/L90T/R188H/W89R); assay: kinetic parameters of FLS:L482R; details: substrate acetaldehyde
# T3 sequence (Q9F4L3 1-563 A28I/A394G/A480W/G419N/L482R/L90T/R188H/W89R): T1 sequence (Q9F4L3 1-563 A28I/A394G/A480W/G419N/L90T/R188H/W89R) with L482R
# Description: as §1, §2
# [4] = target: T4, Pseudomonas fluorescens FLS (formolase) variant FLS:L482E, SEQ ID NO: 12 (Pseudomonas fluorescens, UniProt Q9F4L3, A28I/A394G/A480W/G419N/L482E/L90T/R188H/W89R); assay: kinetic parameters of FLS:L482E; details: substrate acetaldehyde, coenzyme TPP (0.1 mM), pH 8.0, room temperature
# T4 sequence (Q9F4L3 1-563 A28I/A394G/A480W/G419N/L482E/L90T/R188H/W89R): T1 sequence (Q9F4L3 1-563 A28I/A394G/A480W/G419N/L90T/R188H/W89R) with L482E
# Description: as §1, §2
# [5] = test system: Pseudomonas fluorescens FLS (formolase) variant FLS:L482E, SEQ ID NO: 12; assay: kinetic parameters of FLS:L482E; details: substrate acetaldehyde, coenzyme TPP
# Description: as §1, §2
# [6] = coenzyme TPP (0.1 mM), pH 8.0, room temperature
smiles,measurement,setting,value
CC=O [Acetaldehyde],kcat/Km,[1],7.69 M⁻¹ s⁻¹
same,increase of catalyst efficiency (kcat/Km) compared to wild-type FLS,[2]; coenzyme TPP,72.95%
same,kcat/Km,[2]; [6],13.3 M⁻¹ s⁻¹
same,increase of catalyst efficiency (kcat/Km) compared to wild-type FLS,[3]; coenzyme TPP,37.84%
same,kcat/Km,[3]; [6],10.6 M⁻¹ s⁻¹
same,kcat/Km,[4],9.66 M⁻¹ s⁻¹
same,increase of catalyst efficiency (kcat/Km) compared to wild-type FLS,[5],25.62%

# From patent US11441142B2, “FLS variant having increased activity” (KONKUK UNIVERSITY INDUSTRIAL COOPERATION CORPORATION, priority 2017, dated 2022)
